In publication PMC7613515, “Reading and erasing of the phosphonium analogue of trimethyllysine by epigenetic proteins” (Communications Chemistry, 2022):
Entries after “also recorded” stand apart in the source; their conditions may differ.

Columns and labels:
KDM7BJmjC (M37–N483) = test: MALDI-TOF demethylation assay, KDM7BJmjC; format: biochemical; details: 1 hr
Text: To investigate whether H3KP9me3 can be demethylated by other human KDM4 subfamily members, recombinant KDM4AJmjC (M1–L359) and KDM4DJmjC (M1–L358) were produced in E. coli following an adaption of literature procedures[38],[39]. […] To test the ability of KDM3 and KDM7 subfamily representatives to demethylate H3KP9me2 or H3KP9me3, KDM3AJmjC (T515–S1317) and KDM7BJmjC (M37–N483) were produced using baculovirus/sf9 and E. coli expression systems, respectively[40],[41]. The synthesis of a histone H3 mimic peptide H3KP9me2 substrate is challenging as the tri-alkylated phosphine group is susceptible to oxidation during synthesis of the protected amino acid and during SPPS requiring oxygen-free conditions. Thus, to investigate if KDM3AJmjC or KDM7BJmjC can catalyse demethylation of H3KP9me2, an appropriate H3KP9me2 substrate was prepared in situ from H3KP9me3 using KDM4EJmjC (2.0 µM), in the presence of KDM3AJmjC (2.0 µM) or KDM7BJmjC (2.0 µM).
A Bruker Daltonics MALDI-TOF/TOF AutoflexSpeed machine and Bruker MTP 384 target plates (polished steel BC, Part: 8280781) were used. The machine was controlled using Flex control (v. 3.4 build 135.10) and Compass for flex series (v. 1.4) software. Measurements were in the positive ion mode with the reflectron mode enabled. […] Samples were then analysed by MALDI-TOF. […]

KDM4EJmjC (M1–Q337) = biological target: T1, KDM4EJmjC (M1–Q337) (Homo sapiens, UniProt B2RXH2); test: FDH coupled demethylation assay (formaldehyde release), KDM4EJmjC; format: biochemical; details: KDM4EJmjC 0–10 µM, H3KP9me3 10 µM; n = 3 or 4
T1 construct: We chose human KDM4EJmjC (M1–Q337); made in house
T1 sequence (B2RXH2 1-337): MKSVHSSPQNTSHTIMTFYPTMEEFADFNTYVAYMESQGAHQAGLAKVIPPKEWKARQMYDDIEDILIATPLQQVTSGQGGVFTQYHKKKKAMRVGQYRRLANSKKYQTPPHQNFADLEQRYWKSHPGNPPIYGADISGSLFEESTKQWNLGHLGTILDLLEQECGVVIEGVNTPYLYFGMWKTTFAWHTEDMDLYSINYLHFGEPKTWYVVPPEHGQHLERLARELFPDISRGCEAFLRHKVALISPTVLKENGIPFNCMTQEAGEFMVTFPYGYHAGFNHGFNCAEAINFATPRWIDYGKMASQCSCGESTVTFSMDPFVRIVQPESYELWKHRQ
Protocol: To test whether formaldehyde is generated by H3KP9me3 demethylation, a formaldehyde dehydrogenase (FDH) coupled assay was employed (Supplementary Fig. 19a)[34],[37]. […]
measurement of the formation of NADH. a FDH enzyme coupled to KDM4E JmjC demethylation assay measuring the levels of […]
(0–50 µM). c Michaelis-Menten analysis. Standard conditions: FDH (1.0 µM), Asc (1.0 mM), Fe(II) (50 µM), 2OG (200 µM) and NAD+ (250 µM). Errors are standard deviations of the mean (n = 2 or 3).
(1 picture or pasted object on this page, not shown here)
Supplementary Fig. 20 FDH activity assay of KDM4E JmjC (0–10 µM) catalysed demethylation of H3K P9me 3 (10 µM) […]
Standard conditions: FDH (1.0 µM), Ascorbate (1.0 mM), Fe(II) (50 µM), 2OG (200 µM) and NAD + (250 µM). Errors are standard deviations of the mean (n = 3 or 4).

[1] = cited from earlier work
Text: Some JmjC KDMs can also catalyse N-methyl arginine demethylation and with appropriately sized N^ε-substitutions some can catalyse forma ...

Compound | demethylation in combination with KDM4EJmjC (KDM7BJmjC (M37–N483); KDM7BJmjC 2.0 µM plus KDM4EJmjC 2.0 µM, peptide 5.0 µM) | demethylation (KDM7BJmjC (M37–N483); KDM7BJmjC 2.0 µM, H3KP9me2 prepared in situ with KDM4EJmjC) | formaldehyde release (KDM4EJmjC (M1–Q337)) | volume difference Δ[^+Pme4-^+Nme4] ([1]; H3KP9me3 compared to H3K9me3) [Å^3] | bond length (C-P or C-N) ([1]; C-P bond in H3KP4me3, C-N bond in H3K4me3) [Å]
ARTKQTAR(KPme3)STGGKA [H3KP9me3, histone H3 residues 1–15 with trimethylphosphonium lysine analogue at position 9] | produced H3KP9me2 (due to KDM4EJmjC catalysis), but did not result in masses consistent with H3KP9me1 or H3KP9 | do not catalyse demethylation of H3K9me3 (as anticipated) or H3KP9me3 | in an enzyme dependent manner that releases formaldehyde; also recorded: time-dependent increase in formaldehyde | 10 | 
C[C@H](N)C(=O)N[C@@H](CCCNC(=N)N)C(=O)N[C@H](C(=O)N[C@@H](CCCC[P+](C)(C)C)C(=O)N[C@@H](CCC(N)=O)C(=O)N[C@H](C(=O)N[C@@H](C)C(=O)N[C@@H](CCCNC(=N)N)C(=O)N[C@@H](CCCCN)C(=O)N[C@@H](CO)C(N)=O)[C@@H](C)O)[C@@H](C)O [H3KP4me3] |  |  |  |  | 1.87
